# Target: T1, myristoylated Fas-FKBP12 fusion protein (MFF3E) (Homo sapiens, UniProt P25445)
# T1 construct: expressed in transfected cells; host or cells: Jurkat T cells stably transformed with large T-antigen, transient transfection
# Assay type: cell-based
# T1 sequence (P25445 with tags, fused parts or gaps): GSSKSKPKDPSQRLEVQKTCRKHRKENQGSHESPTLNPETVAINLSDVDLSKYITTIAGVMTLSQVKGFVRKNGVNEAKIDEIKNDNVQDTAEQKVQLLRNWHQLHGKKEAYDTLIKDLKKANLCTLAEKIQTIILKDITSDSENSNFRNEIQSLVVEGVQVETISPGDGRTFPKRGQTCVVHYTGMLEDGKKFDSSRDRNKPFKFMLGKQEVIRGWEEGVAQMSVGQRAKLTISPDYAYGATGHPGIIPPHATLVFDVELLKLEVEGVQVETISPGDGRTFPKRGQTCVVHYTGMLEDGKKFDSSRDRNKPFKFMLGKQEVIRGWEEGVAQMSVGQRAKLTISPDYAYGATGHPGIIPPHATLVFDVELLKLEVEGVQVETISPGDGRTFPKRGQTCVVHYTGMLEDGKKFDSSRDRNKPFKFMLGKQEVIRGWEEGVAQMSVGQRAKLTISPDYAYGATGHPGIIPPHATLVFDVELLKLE
substance,measurement,value
FK1012-A (p-xylylenediamine bridge) [FK1012A],LD50 for mediated death of cells,15 nM
